Measured values from US20250084079A1, “COMPOSITIONS AND METHODS FOR INHIBITION OF RAS” (TheRas, Inc., priority 2022, published 2025).
Read-outs that look alike come from different tables or passages of the source.

Legend:
[1] = tested on: pERK in GP2d cells (KRAS G12D); assay: Cell-based pERK HTRF assay in GP2d cell; details: 60 min incubation
Protocol: A pERK assay (Perkin Elmer) was used to determine the effectiveness of compounds in disrupting KRAS G12D protein/effector signaling in cells.
On Day 1, cells (GP2d) were seeded into 96-well plates at 3×10^4 cells/well in 80 μL complete growth media (DMEM, 10% FBS).
On Day 2, cells were treated with compounds at 0.25% DMSO. The source plate was created with compounds diluted in media at 5-fold the final assay concentration. The compounds were run in a 9-point concentration curve starting at 1 μM, with a half-log dilution between concentrations. 20 μL was transferred onto the cell plates (final volume in wells was 100 μL). Plates were harvested after 60 min incubation by aspirating media and adding kit-supplied 1× supplemented lysis buffer to all wells (50 μL per well). Plates were then placed on a plate shaker and incubated at 850 rpm for an additional 30 min.
Antibody mixture solution is prepared by diluting aliquoted d2 and Eu Cryptate antibodies 1:20 in kit supplied detection buffer, mix the diluted antibodies solutions (1:1 v:v). 4 μL of this solution is then added to a 384-well detection plate (Perkin Elmer; 6008230).
Samples were homogenized by pipetting up and down and then transferred (16 μL of cell lysates) from the 96-well cell culture plate to two wells of the HTRF 384-well detection plate containing the antibody solution. Plates were centrifuged (524 g for 1 min) and allowed to incubate between 4 and 24 h at room temperature. Maximum signal is reached after 4 h incubation time and remains stable over a period of 24 hours. Therefore, readings can be made between 4 and 24 h of incubation. Plates were centrifuged again (524 g for Imin), then analyzed on the EnVision plate reader using the following settings: Excitation 320 nm, Bandwidth 75 nm; Emission 615 nm, Bandwidth 85 nm; Gain 100%; Flashes 100; Lag 60 μs.

[2] = molecular target: T1, Avi-KRAS G12D (1-169) GppNHp/RAF1 RBD-3xFLAG (52-151) (Homo sapiens, UniProt P01116, G12D); assay: RAS-effector PPI HTRF disruption assay, Raf1-GppNHp-KRAS G12D; assay type: biochemical
T1 construct: 100 nM Avi-KRAS G12D (1-169) GppNHp
T1 sequence (P01116 1-169 isoform P01116-2 G12D): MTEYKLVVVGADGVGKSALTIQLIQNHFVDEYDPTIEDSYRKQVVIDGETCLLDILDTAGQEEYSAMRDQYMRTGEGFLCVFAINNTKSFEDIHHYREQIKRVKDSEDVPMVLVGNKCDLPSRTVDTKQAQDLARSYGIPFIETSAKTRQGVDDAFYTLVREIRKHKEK
Protocol: (§1) A protein:protein interaction (PPI) Homogeneous Time Resolved Fluorescence (HTRF) assay was used to determine the effectiveness of compounds of the present disclosure in disrupting KRAS protein and effector (RAF1 or PIK3 CA) binding.
(§2) The HTRF assay used the following reagents and proteins: (i) 375 nM Avi-KRAS G12D/Q25A (1-169) GppNHp/3×FLAG-PI3KCA (157-299); (ii) 100 nM Avi-KRAS G12D (1-169) GppNHp/RAF1 RBD-3×FLAG (52-151); (iii) 50 nM Avi-KRAS G12V (1-169) GppNHp/RAF1 RBD-3×FLAG (52-151); (iv) 50 nM Avi-KRAS WT (1-169) GppNHp/RAF1 RBD-3×FLAG (52-151); and (v) 35 nM Avi-PI3K RBD CA-3×FLAG; Assay Buffer: 50 mM Tris pH 7.5, 100 mM NaCl, 5 mM MgCl2, 0.1% BSA, 0.01% Tween, 1 mM TCEP, 10% DMSO; Bead Buffer: 50 mM Tris pH 7.5, 0.01% Tween 20; Assay volume: 20 μL (384 well plate-low volume format); and Compound titration: 100-0.02 μM, 3× dilution series.
(§3) The HTRF assay employed the following protocol:
(§4) Compounds were dispensed in assay plate (384-well, Grenier Bione #784075) using Echo (model 555) with dose response settings: 200 nL final volume, titration from 100 μM as a 10-point dilution series. Protein mix was prepared in assay buffer, and dispensed on plates, 10 μL per well, then incubated for 1 h at room temperature, with 700 rpm shaking. Reagents mix was prepared and dispensed on plates, 10 μL per well, then incubated for 1 h at room temperature, with 700 rpm shaking.
(§5) Plates were analyzed on an Envision plate reader using the following setting: Excitation 320 nm, Bandwidth […]; Emission 615 nm, Bandwidth […], Gain 100%, Flashes 100, Lag 60 μs. Data was reported as percentage of activity, with DMSO as 100%. Data was plotted and analyzed using Prism 8. The SPR Kd, biochemical Raf1-KRAS G12D/G12V/WT-GppNHP and PI3KCA-KRAS G12D/Q25A-GppNHp disruption assay IC50 of selected compounds described herein are shown in Table 4.

[3] = molecular target: T2, Avi-KRAS WT (1-169) GppNHp/RAF1 RBD-3xFLAG (52-151) (Homo sapiens, UniProt P01116); assay: RAS-effector PPI HTRF disruption assay, Raf1-GppNHp-KRAS WT; assay type: biochemical
T2 construct: 50 nM Avi-KRAS WT (1-169) GppNHp
T2 sequence (P01116 1-169 isoform P01116-2): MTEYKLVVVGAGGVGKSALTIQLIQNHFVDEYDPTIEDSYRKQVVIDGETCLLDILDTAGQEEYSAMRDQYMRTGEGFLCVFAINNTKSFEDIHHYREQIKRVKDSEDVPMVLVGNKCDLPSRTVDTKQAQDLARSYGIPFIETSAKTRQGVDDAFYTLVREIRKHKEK
Protocol: as §1, §2, §3, §4, §5

[4] = molecular target: T3, Avi-KRAS G12V (1-169) GppNHp/RAF1 RBD-3xFLAG (52-151) (Homo sapiens, UniProt P01116, G12V); assay: RAS-effector PPI HTRF disruption assay, Raf1-GppNHp-KRAS G12V; assay type: biochemical
T3 construct: 50 nM Avi-KRAS G12V (1-169) GppNHp
T3 sequence (P01116 1-169 isoform P01116-2 G12V): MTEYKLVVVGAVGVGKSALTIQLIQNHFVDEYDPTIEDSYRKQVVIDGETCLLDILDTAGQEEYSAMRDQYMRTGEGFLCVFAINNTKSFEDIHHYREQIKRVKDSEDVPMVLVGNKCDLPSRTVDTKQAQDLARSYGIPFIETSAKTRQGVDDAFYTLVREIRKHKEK
Protocol: as §1, §2, §3, §4, §5

[5] = molecular target: T4, Avi-KRAS G12D/Q25A (1-169) GppNHp/3xFLAG-PI3KCA (157-299) (Homo sapiens, UniProt P01116, G12D/Q25A); assay: RAS-effector PPI HTRF disruption assay, PI3KCA-GppNHp-KRAS G12D/Q25A; assay type: biochemical
T4 construct: 375 nM Avi-KRAS G12D/Q25A (1-169) GppNHp
T4 sequence (P01116 1-169 isoform P01116-2 G12D/Q25A): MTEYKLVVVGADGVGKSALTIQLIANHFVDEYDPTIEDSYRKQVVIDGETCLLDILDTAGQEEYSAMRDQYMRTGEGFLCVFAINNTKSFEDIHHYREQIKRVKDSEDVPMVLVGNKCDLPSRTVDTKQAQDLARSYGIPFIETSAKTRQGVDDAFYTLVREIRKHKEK
Protocol: as §1, §2, §3, §4, §5

Row | Compound | IC50 ([1]; read-out: pERK-Gp2D-1 hr) [nM] | IC50 [2] [nM] | IC50 [3] [nM] | IC50 [4] [µM] | IC50 [5] [nM] | IC50 ([1]; GP2d, 1 h) [nM]
1 | C[C@@H]1CNCC1Oc1nc(OC[C@@]23CCCN2C[C@H](F)C3)nc2c(F)c(-c3ccc(F)c4sc(N)nc34)c(C(F)(F)F)cc12 (stereo partly drawn) [Compound 16] | 100 to 1000 | 1000 to 10000 | 1000 to 10000 | 1 to 10 | 1000 to 10000 | –
2 | C[C@H]1NCC[C@H]1Oc1nc(OC[C@@]23CCCN2C[C@H](F)C3)nc2c(F)c(-c3ccc(F)c4scnc34)c(C(F)(F)F)cc12 [Compound 23] | – | > 10000 | > 10000 | > 10 | > 10000 | > 1000
3 | Nc1nc2c(-c3ncc4c(O[C@@H]5CCNC5)nc(OC[C@@]56CCCN5C[C@H](F)C6)nc4c3F)ccc(F)c2s1 [Compound 24, 7-fluoro-4-(8-fluoro-2-(((2R,7aS)-2-fluorotetrahydro-1H-pyrrolizin-7a(5H)-yl)methoxy)-4-(((R)-pyrrolidin-3-yl)oxy)pyrido[4,3-d]pyrimidin-7-yl)benzo[d]thiazol-2-amine] | – | > 10000 | > 10000 | > 10 | > 10000 | > 1000
4 | Nc1nc2c(-c3c(C(F)(F)F)cc4c(O[C@H]5CNCC5(F)F)nc(OC[C@@]56CCCN5C[C@H](F)C6)nc4c3F)ccc(F)c2s1 [Compound 28] | 100 to 1000 | 1000 to 10000 | 1000 to 10000 | > 10 | > 10000 | –
5 | Nc1nc2c(-c3cc4nc(OC[C@@]56CCCN5C[C@H](F)C6)nc(O[C@H]5CNC[C@@H]5F)c4cc3C(F)(F)F)ccc(F)c2s1 [Compound 30] | – | 1000 to 10000 | > 10000 | > 10 | > 10000 | > 1000
6 | Nc1nc2c(-c3cc4nc(OC[C@@]56CCCN5C[C@H](F)C6)nc(O[C@H]5CNC[C@H]5F)c4cc3C(F)(F)F)ccc(F)c2s1 [Compound 31] | – | 1000 to 10000 | > 10000 | > 10 | > 10000 | > 1000
7 | Nc1nc2c(-c3ncc4c(O[C@@H]5CCNC5)nc(OC[C@@]56CCCN5C[C@H](F)C6)nc4c3F)c(F)cc(F)c2s1 [Compound 32] | – | > 10000 | > 10000 | > 10 | > 10000 | > 1000
8 | Nc1nc2c(-c3c(C(F)(F)F)cc4c(O[C@H]5CNC[C@@H]5F)nc(OC[C@@]56CCCN5C[C@H](F)C6)nc4c3Cl)ccc(F)c2s1 [Compound 33] | – | 1000 to 10000 | 1000 to 10000 | > 10 | 1000 to 10000 | 100 to 1000
9 | Nc1nc2c(-c3c(C(F)(F)F)cc4c(OC5CC6CC[C@H]5N6)nc(OCC56CCCN5CCC6)nc4c3F)ccc(F)c2s1 (stereo partly drawn) [Compound 36] | – | 100 to 1000 | 1000 to 10000 | > 10 | > 10000 | > 1000
10 | N#Cc1c(N)sc2c(F)ccc(-c3ncc4c(O[C@H]5CNC[C@H]5F)nc(OC[C@@]56CCCN5C[C@H](F)C6)nc4c3F)c12 [Compound 51] | – | 1000 to 10000 | > 10000 | > 10 | 1000 to 10000 | > 1000

Second part, the molecule after the results:

Row | IC50 ([1]; read-out: pERK-Gp2D-1 hr) [nM] | IC50 [2] [nM] | IC50 [3] [nM] | IC50 [4] [µM] | IC50 [5] [nM] | IC50 ([1]; GP2d, 1 h) [nM] | Compound
11 | – | 100 to 1000 | 100 to 1000 | 1 to 10 | 100 to 1000 | ≤ 100 | C[C@H]1NCC[C@H]1Oc1nc(OCC23CCCN2C[C@H](F)C3)nc2c(F)c(-c3ccc(F)c4sc(N)nc34)c(C(F)(F)F)cc12 (stereo partly drawn) [Compound 25]
12 | – | 100 to 1000 | 1000 to 10000 | 1 to 10 | > 10000 | 100 to 1000 | CC1(C)NCC[C@H]1Oc1nc(OC[C@@]23CCCN2C[C@H](F)C3)nc2c(F)c(-c3ccc(F)c4sc(N)nc34)c(C(F)(F)F)cc12 [Compound 27]
13 | – | 100 to 1000 | 100 to 1000 | 0.1 to 1 | 100 to 1000 | ≤ 100 | CC1(C)NCCC1Oc1nc(OC[C@@]23CCCN2C[C@H](F)C3)nc2c(F)c(-c3ccc(F)c4sc(N)c(C#N)c34)c(C(F)(F)F)cc12 (stereo partly drawn) [Compound 34]
14 | – | 100 to 1000 | 1000 to 10000 | 1 to 10 | > 10000 | 100 to 1000 | C[C@H]1NCC[C@H]1Oc1nc(OC[C@@]23CCCN2C[C@H](F)C3)nc2cc(-c3ccc(F)c4sc(N)nc34)c(C(F)(F)F)cc12 [Compound 35]
15 | – | 100 to 1000 | > 10000 | > 10 | > 10000 | > 1000 | N#Cc1c(N)sc2c(F)ccc(-c3cc4nc(OC[C@@]56CCCN5C[C@H](F)C6)nc(O[C@H]5CNC[C@@H]5F)c4cc3C(F)(F)F)c12 [Compound 46]
16 | – | ≤ 100 | ≤ 100 | 0.1 to 1 | > 10000 | ≤ 100 | C[C@H]1NCC[C@H]1Oc1nc(OC[C@@]23CCCN2C[C@H](F)C3)nc2c(F)c(-c3ccc(F)c4sc(N)c(C#N)c34)c(C(F)(F)F)cc12 [Compound 47, 2-amino-7-fluoro-4-(8-fluoro-2-(((2R,7aS)-2-fluorotetrahydro-1H-pyrrolizin-7a(5H)-yl)methoxy)-4-(((2R,3R)-2-methylpyrrolidin-3-yl)oxy)-6-(trifluoromethyl)quinazolin-7-yl)benzo[b]thiophene-3-carbonitrile]
17 | – | 100 to 1000 | 1000 to 10000 | > 10 | 100 to 1000 | 100 to 1000 | N#Cc1c(N)sc2c(F)ccc(-c3ccc4c(O[C@@H]5CCNC5)nc(OC[C@@]56CCCN5C[C@H](F)C6)nc4c3F)c12 [Compound 48]
18 | – | 100 to 1000 | 1000 to 10000 | 1 to 10 | 100 to 1000 | ≤ 100 | N#Cc1c(N)sc2c(F)ccc(-c3cc4nc(OC[C@@]56CCCN5C[C@H](F)C6)nc(O[C@H]5CNC[C@H]5F)c4cc3C(F)(F)F)c12 [Compound 49]
19 | – | 100 to 1000 | 100 to 1000 | 0.1 to 1 | 100 to 1000 | ≤ 100 | N#Cc1c(N)sc2c(F)ccc(-c3c(C(F)(F)F)cc4c(O[C@@H]5CCN[C@@H]5CO)nc(OC[C@@]56CCCN5C[C@H](F)C6)nc4c3F)c12 [Compound 50]
20 | – | 100 to 1000 | 1000 to 10000 | > 10 | 1000 to 10000 | 100 to 1000 | Nc1nc2c(-c3c(C(F)(F)F)cc4c(O[C@H]5CN[C@H](CO)C5)nc(OCC56CCCN5C[C@H](F)C6)nc4c3F)ccc(F)c2s1 (stereo partly drawn) [Compound 52]
21 | – | 100 to 1000 | 100 to 1000 | 1 to 10 | 100 to 1000 | ≤ 100 | N#Cc1c(N)sc2c(F)ccc(-c3c(C(F)(F)F)cc4c(O[C@H]5CNC[C@@H]5F)nc(OC[C@@]56CCCN5C[C@H](F)C6)nc4c3F)c12 [Compound 53]
